Assay results from patent US20090162459A1, “Combination Therapy for Treatment of Patients with Neurological Disorders and Cerebral Infarction” (priority 2006, published 2009).

Assays:
acute ischaemic stroke = conditions: secondary stroke prevention in cerebral stroke patients, aspirin/other antiplatelets/anticoagulant; cited from earlier work
blood coagulation = assay: Phase IV open-label study NeuroAid®/aspirin interaction in healthy volunteers, 5 coagulation tests; type: in vivo, human; conditions: 11 healthy volunteers per group
Method: Blood samples of the subjects were collected before they received treatment and 2 and 8 hours after treatment initiation.

Acute Ischemic Stroke = conditions: cited from earlier work
[1] = clinical stroke trials, versus placebo

SMILES	improvement effect (acute ischaemic stroke)	Activated Partial Prothrombine Time, Mean (blood coagulation; T + 2 hours)	D-Dimer, Mean (blood coagulation; T + 2 hours)	Fibrinogen, Mean (blood coagulation; T + 2 hours)	Platelet Aggregation, Mean (blood coagulation; T + 2 hours)	D-Dimer, Mean (blood coagulation; T + 8 hours)	Fibrinogen, Mean (blood coagulation; T + 8 hours)	Platelet Aggregation, Mean (blood coagulation; T + 8 hours)	Activated Partial Prothrombine Time, Mean (blood coagulation; T = 0, before treatment)	D-Dimer, Mean (blood coagulation; T = 0, before treatment)	Fibrinogen, Mean (blood coagulation; T = 0, before treatment)	Platelet Aggregation, Mean (blood coagulation; T = 0, before treatment)	Quick Prothrombine Time, Mean (blood coagulation; T = 0, before treatment)	cognitive function as measured by the Mini Mental Status Examination (Acute Ischemic Stroke; [1])	functional outcome as measured by the Barthel Index and Rankin scale (Acute Ischemic Stroke; [1])	neurologic evaluation as measured by the NIH stroke scale (Acute Ischemic Stroke; [1])	complete recovery at 3 months (Acute Ischemic Stroke; oral Citicoline, acute ischemic stroke, Davalos et al. 2002)
CC(=O)Oc1ccccc1C(=O)O [Aspirin alone, Acetylsalicylic Acid]	about 1%	39.0 s	0.16 µg/mL	3.2 G/L	62.87 Percentage	0.16 µg/mL	3.0 G/L	48.01 Percentage	38.8 s	0.16 µg/mL	3.2 G/L	62.82 Percentage	12.9 s	–	–	–	–
C[N+](C)(C)CCOP(=O)(O)OP(=O)([O-])OC[C@H]1O[C@@H](n2ccc(N)nc2=O)[C@H](O)[C@@H]1O [Citicoline, CDP-choline]	–	–	–	–	–	–	–	–	–	–	–	–	–	significant difference between the groups, favoring citicoline treatment	significant difference between the groups, favoring citicoline treatment	significant difference between the groups, favoring citicoline treatment	improve complete recovery at 3 months
